Values after ≈ are worked out from the molar mass of the structure shown. Like-named read-outs stand apart in the source and are kept apart here.
Test system: Candida auris strain AR Bank #384 (K)
Experiment: MIC determination by in vitro antifungal assay
Format: cell-based
Method: The antifungal agent amphotericin B (AmB) was purchased from VWR (Radnor PA, USA). AmB was dissolved in DMSO at a final concentration of 5 mg/mL and was stored at −20° C., protected from light. Candida albicans American Type Culture Collection (ATCC) 10231 (strain A), C. albicans ATCC 64124 (B), and C. albicans ATCC MYA-2876 (C) were obtained from Utah State University. C. albicans ATCC 90819 (D), C. albicans ATCC MYA-2310 (E), C. albicans ATCC MYA-1237 (F), C. albicans ATCC MYA-1003 (G), Candida glabrata ATCC 2001 (H), Candida krusei ATCC 6258 (I), Candida parapsilosis ATCC 22019 (J), Cryptococcus neoformans ATCC MYA-895 (M), Aspergillus terreus ATCC MYA-3633 (N), and Aspergillus flavus ATCC MYA-3631 (0) were obtained from the American Type Culture Collection (ATCC; Manassas, VA, USA). Aspergillus nidulans ATCC 38163 (P) was obtained from University of Kentucky. Clinically derived Aspergillus fumigatus NRRL 163 (Q), A. fumigatus NRRL 5109 (R), and A. fumigatus NRRL 6113 (S) were obtained from Northern Regional Research Laboratory (NRRL). Candida auris 384 (K), C. auris 390 (L), and fungal strains 381-400 (including 10 C. auris (AR Bank #381-390), 3 Candida duobushaemulonii (AR Bank #391, AR Bank #392, and AR Bank #394), 2 Candida haemulonii (AR Bank #393 and AR Bank #395), 1 Kodameae ohmeri (AR Bank #396), 1 C. krusei (AR Bank #397), 1 Candida lusitaniae (AR Bank #398), and 2 Saccharomyces cerevisiae strains (AR Bank #399 and AR Bank #400)) were part of a larger fungal library from the AR Bank maintained by the Centers for Disease Control and Prevention (CDC; Atlanta, GA, USA). Filamentous fungi and yeasts were cultivated at 35° C. in RPMI 1640 medium (with L-glutamine, without sodium bicarbonate, Sigma-Aldrich, St. Louis, MO) buffered to a pH of 7.0 with 0.165 M morpholinepropanesulfonic acid (MOPS) buffer (Sigma-Aldrich). For cytotoxicity assays, HepG2 and the mouse macrophage cell line J774A.1 were obtained from University of Kentucky. The human embryonic kidney cell line, HEK-293, was bought from the ATCC. Mammalian cells were grown in Dulbecco's Modified Eagle's Medium (DMEM) (from VWR) with 10% fetal bovine serum (FBS) (from VWR) and 1% Pen/Strep (from ATCC). Cell lines were cultured at 37° C. with 5% CO2 and passaged by trypsinization with 0.05% trypsin: 0.53 mM EDTA (from Sigma-Aldrich).
From the actively growing yeast culture, 100 µL were then transferred to 900 μL of RPMI 1640 medium and re-adjusted to achieve OD600 of 0.12 (˜1×10^6 CFU/mL). The cell suspension was further diluted to achieve 1:100 in RPMI 1640 medium.
Finally, the activity of these monohydrazides was explored against […] non-Candida strains: Cryptococcus neoformans ATCC MYA-895 (M), Aspergillus terreus ATCC MYA-3633 (N), Aspergillus flavus ATCC MYA-3631 (O), Aspergillus nidulans ATCC 38163 (P), Aspergillus fumigatus NRRL 163 (Q), A. fumigatus NRRL 5109 (R), and A. fumigatus NRRL 6113 (S) (Tables 1A and 1B). The double dilution method was used with concentrations ranging from 0.06 to 31.3 j·tg mL^−1 for monohydrazides 1a-9j, and the commercially available positive antifungal control amphotericin B (AmB).

[1] = Candidozyma auris, strain K = C. auris AR Bank # 0384 (Tables 1A/1B), read-out: MIC
[2] = Candidozyma auris, C. auris AR Bank # 384 (K) (Table 2B), read-out: MIC
[3] = strain K = C. auris AR Bank # 0384 (Tables 1A/1B)
[4] = C. auris AR Bank # 384 (K) (Table 2B)
[5] = Candidozyma auris, C. auris AR Bank #384 (K), read-out: MIC

Row | SMILES | MIC [1] [µg/mL] | MIC [3] [μg/mL^−1] | further results
1 | O=C(NNc1cc(Cl)cc(Cl)c1)c1cnccn1 [Compound 9j] | 15.6 (≈ 55.1 µM) |  | 
2 | O=C(NNc1ccc(F)cc1F)c1nc(F)ccc1F [Compound 8g] | 3.9 (≈ 13.7 µM) |  | MIC [2]: 0.98 µg/mL (≈ 3.44 µM)
3 | COc1ccc(NNC(=O)c2ccc(F)cn2)cc1 [Compound 3f] |  | 3.9 | 
4 | O=C(NNc1ccc(F)cc1F)c1ccc(F)cn1 [Compound 3g] | 7.8 (≈ 29.2 µM) |  | MIC [2]: 0.98 µg/mL (≈ 3.67 µM)
5 | O=C(NNc1ccc(F)cc1F)c1ccc(F)cc1F [Compound 1g] | 15.6 (≈ 54.9 µM) |  | 
6 | O=C(NNc1ccc(Cl)cc1)c1ccccn1 [Compound 2e] |  | 1.95 | MIC (C. auris AR Bank #384 (K)): 1.95 μg/mL^−1
7 | O=C(NNc1cc(F)cc(F)c1)c1cnccn1 [Compound 9i] | 0.49 (≈ 1.96 µM) |  | 
8 | O=C(NNc1ccc(F)cc1F)c1cccc(F)n1 [Compound 5g] | 7.8 (≈ 29.2 µM) |  | MIC [2]: 3.9 µg/mL (≈ 14.6 µM)
9 | O=C(NNc1cccc(Cl)c1)c1ccccn1 [Compound 2b] |  | 0.98 | MIC (C. auris AR Bank #384 (K)): 0.98 μg/mL^−1
10 | COc1cccc(NNC(=O)c2nc(F)ccc2F)c1 [Compound 8c] | 15.6 (≈ 55.9 µM) |  | 
11 | O=C(NNc1ccc(F)cc1)c1ccc(F)cn1 [Compound 3d] |  | 3.9 | MIC [4]: 0.98 μg/mL^−1
12 | O=C(NNc1ccc(F)cc1F)c1ccccn1 [Compound 2g] | 0.49 (≈ 1.97 µM) |  | MIC [5]: 0.49 µg/mL (≈ 1.97 µM)
13 | COc1cccc(NNC(=O)c2ccc(F)cc2F)c1 [Compound 1c] | 1.95 (≈ 7.01 µM) |  | 
14 | O=C(NNc1ccc(F)cc1F)c1ccc(Br)cn1 [Compound 4g] | 3.9 (≈ 11.9 µM) |  | 
15 | O=C(NNc1cc(F)ccc1F)c1ccc(F)cc1F [Compound 1h] | 31.3 (≈ 110 µM) |  | 
16 | O=C(NNc1cccc(F)c1)c1cnccn1 [Compound 9a] |  | 0.98 | 
17 | COc1ccc(NNC(=O)c2ccc(Br)cn2)cc1 [Compound 4f] | 1.95 (≈ 6.05 µM) |  | 
18 | C[C@@H]1[C@H](O)[C@@H](C)/C=C/C=C/C=C/C=C/C=C/C=C/C=C/[C@H](O[C@@H]2O[C@H](C)[C@@H](O)[C@H](N)[C@@H]2O)C[C@@H]2O[C@](O)(C[C@@H](O)C[C@@H](O)[C@H](O)CC[C@@H](O)C[C@@H](O)CC(=O)O[C@H]1C)C[C@H](O)[C@H]2C(=O)O [AmB, amphotericin B, reference compound] |  | 1.95 | MIC (C. auris AR Bank #384 (K)): 1.95 μg/mL^−1; MIC [4]: 1.95 μg/mL^−1
19 | O=C(NNc1ccc(F)cc1)c1ccc(F)cc1F [Compound 1d] | 1.95 (≈ 7.32 µM) |  | 
20 | O=C(NNc1ccc(F)cc1)c1cnccn1 [Compound 9d] | 0.49 (≈ 2.11 µM) |  | 
21 | COc1cccc(NNC(=O)c2ccc(F)cn2)c1 [Compound 3c] |  | 1.95 | MIC [4]: 0.49 μg/mL^−1

Row | SMILES | MIC [1] [µg/mL] | MIC [3] [μg/mL^−1] | further results
22 | COc1ccc(NNC(=O)c2nc(F)ccc2F)cc1 [Compound 8f] | 3.9 (≈ 14 µM) |  | MIC [2]: 0.98 µg/mL (≈ 3.51 µM)
23 | O=C(NNc1cccc(F)c1)c1ccccn1 [Compound 2a] |  | 1.95 | MIC (C. auris AR Bank #384 (K)): 1.95 μg/mL^−1
24 | COc1cccc(NNC(=O)c2ccccn2)c1 [Compound 2c] |  | 0.98 | MIC (C. auris AR Bank #384 (K)): 0.98 μg/mL^−1
25 | O=C(NNc1ccc(F)cc1F)c1ncc(F)cc1F [Compound 7g] | 7.8 (≈ 27.3 µM) |  | MIC [2]: 0.98 µg/mL (≈ 3.44 µM)
26 | O=C(NNc1cc(Cl)cc(Cl)c1)c1ccc(F)cc1F [Compound 1j] | > 31.3 |  | MIC [2]: 15.6 µg/mL (≈ 49.2 µM)
27 | O=C(NNc1cc(F)cc(F)c1)c1ccccn1 [Compound 2i] | 0.24 (≈ 0.963 µM) |  | MIC [5]: 0.98 µg/mL (≈ 3.93 µM)
28 | O=C(NNc1cc(F)cc(F)c1)c1ccc(F)cc1F [Compound 1i] | 15.6 (≈ 54.9 µM) |  | 
29 | O=C(NNc1cccc(F)c1)c1ccc(F)cc1F [Compound 1a] |  | 1.95 | 
30 | COc1cccc(NNC(=O)c2ncc(F)cc2F)c1 [Compound 7c] | 7.8 (≈ 27.9 µM) |  | 
31 | O=C(NNc1ccc(Cl)cc1)c1cnccn1 [Compound 9e] |  | 1.95 | MIC (C. auris AR Bank #384 (K)): 1.95 μg/mL^−1
32 | O=C(NNc1ccc(Cl)cc1)c1cccc(F)n1 [Compound 5e] |  | 3.9 | MIC [4]: 3.9 μg/mL^−1
33 | O=C(NNc1ccc(F)cc1)c1ncc(F)cc1F [Compound 7d] | 1.95 (≈ 7.3 µM) |  | MIC [2]: 0.49 µg/mL (≈ 1.83 µM)
34 | O=C(NNc1cccc(F)c1)c1ccc(F)cn1 [Compound 3a] |  | 1.95 | 
35 | O=C(NNc1ccc(Cl)cc1)c1ncc(F)cc1F [Compound 7e] |  | 3.9 | MIC [4]: 7.9 μg/mL^−1
36 | O=C(NNc1cccc(Cl)c1)c1cnccn1 [Compound 9b] | 1.95 (≈ 7.84 µM) |  | MIC [5]: 0.98 µg/mL (≈ 3.94 µM)
37 | O=C(NNc1ccc(F)cc1)c1cccc(Br)n1 [Compound 6d] | 3.9 (≈ 12.6 µM) |  | MIC [2]: 0.98 µg/mL (≈ 3.16 µM)
38 | COc1ccc(NNC(=O)c2ccc(F)cc2F)cc1 [Compound 1f] | 1.95 (≈ 7.01 µM) |  | 
39 | COc1cccc(NNC(=O)c2cnccn2)c1 [Compound 9c] | 1.95 (≈ 7.98 µM) |  | MIC [5]: 1.95 µg/mL (≈ 7.98 µM)
40 | O=C(NNc1cccc(F)c1)c1ccc(Br)cn1 [Compound 4a] |  | 1.95 | 
41 | O=C(NNc1cc(F)ccc1F)c1cnccn1 [Compound 9h] | 0.49 (≈ 1.96 µM) |  | 
42 | COc1ccc(NNC(=O)c2ccccn2)cc1 [Compound 2f] | 3.9 (≈ 16 µM) |  | MIC [5]: 3.9 µg/mL (≈ 16 µM)

Row | SMILES | MIC [1] [µg/mL] | MIC [3] [μg/mL^−1] | further results
43 | O=C(NNc1ccc(Cl)cc1)c1nc(F)ccc1F [Compound 8e] |  | 7.8 | MIC [4]: 7.8 μg/mL^−1
44 | O=C(NNc1ccc(F)cc1F)c1cnccn1 [Compound 9g] | 3.9 (≈ 15.6 µM) |  | MIC [5]: 3.9 µg/mL (≈ 15.6 µM)
45 | COc1ccc(NNC(=O)c2cnccn2)cc1 [Compound 9f] | 0.49 (≈ 2.01 µM) |  | MIC [5]: 0.98 µg/mL (≈ 4.01 µM)
46 | O=C(NNc1cccc(F)c1)c1cccc(Br)n1 [Compound 6a] |  | 3.9 | 
47 | COc1cccc(NNC(=O)c2ccc(Br)cn2)c1 [Compound 4c] | 1.95 (≈ 6.05 µM) |  | 
48 | O=C(NNc1ccc(Cl)cc1)c1ccc(F)cn1 [Compound 3e] |  | 7.8 | MIC [4]: 7.8 μg/mL^−1
49 | O=C(NNc1ccc(F)cc1)c1ccc(Br)cn1 [Compound 4d] | 7.8 (≈ 25.2 µM) |  | MIC [2]: 1.95 µg/mL (≈ 6.29 µM)
50 | COc1ccc(NNC(=O)c2ncc(F)cc2F)cc1 [Compound 7f] | 3.9 (≈ 14 µM) |  | MIC [2]: 0.98 µg/mL (≈ 3.51 µM)
51 | O=C(NNc1ccc(F)cc1)c1nc(F)ccc1F [Compound 8d] | 1.95 (≈ 7.3 µM) |  | MIC [2]: 0.49 µg/mL (≈ 1.83 µM)
52 | O=C(NNc1cc(F)ccc1F)c1ccccn1 [Compound 2h] | 0.24 (≈ 0.963 µM) |  | MIC [5]: 1.95 µg/mL (≈ 7.82 µM)
53 | O=C(NNc1cccc(F)c1)c1nc(F)ccc1F [Compound 8a] |  | 1.95 | 
54 | O=C(NNc1ccc(F)cc1)c1ccccn1 [Compound 2d] | 3.9 (≈ 16.9 µM) |  | MIC [5]: 3.9 µg/mL (≈ 16.9 µM)
55 | O=C(NNc1cccc(Cl)c1)c1ccc(F)cc1F [Compound 1b] | 13.6 (≈ 48.1 µM) |  | MIC [2]: 7.8 µg/mL (≈ 27.6 µM)
56 | O=C(NNc1cc(Cl)cc(Cl)c1)c1ccccn1 [Compound 2j] | 7.8 (≈ 27.6 µM) |  | MIC [5]: 7.8 µg/mL (≈ 27.6 µM)
57 | COc1ccc(NNC(=O)c2cccc(F)n2)cc1 [Compound 5f] | 1.95 (≈ 7.46 µM) |  | 
58 | COc1ccc(NNC(=O)c2cccc(Br)n2)cc1 [Compound 6f] | 1.95 (≈ 6.05 µM) |  | 
59 | O=C(NNc1ccc(Cl)cc1)c1ccc(F)cc1F [Compound 1e] |  | 7.8 | 
60 | O=C(NNc1cccc(F)c1)c1ncc(F)cc1F [Compound 7a] |  | 1.95 | 
61 | O=C(NNc1cccc(F)c1)c1cccc(F)n1 [Compound 5a] |  | 1.95 | 
62 | O=C(NNc1ccc(F)cc1)c1cccc(F)n1 [Compound 5d] | 1.95 (≈ 7.82 µM) |  | MIC [2]: 0.49 µg/mL (≈ 1.97 µM)

— US20240425464A1, “Substituted Monohydrazides as Potent Antifungal Agents” (University of Kentucky Research Foundation, priority 2023, published 2024)
